Data taken from patent US10208021B2, “Substituted tetrahydroisoquinoline compounds as factor XIa inhibitors” (BRISTOL-MYERS SQUIBB COMPANY, priority 2011, dated 2019).
Where a name gives a salt, the structure may show the parent alone.

Each compound was assayed against purified human Factor XIa (Homo sapiens (Human), UniProt P03951) (assay: Factor XIa chromogenic substrate (S-2366) inhibition assay). Settings: substrate S-2366, Table 1.
Type: biochemical
Protocol: The effectiveness of compounds of the present invention as inhibitors of the coagulation factors XIa, VIIa, IXa, Xa, XIIa, plasma kallikrein or thrombin, can be determined using a relevant purified serine protease, respectively, and an appropriate synthetic substrate. The rate of hydrolysis of the chromogenic or fluorogenic substrate by the relevant serine protease was measured both in the absence and presence of compounds of the present invention. […] A decrease in the rate of absorbance or fluorescence change in the presence of inhibitor is indicative of enzyme inhibition. Such methods are known to one skilled in the art. The results of this assay are expressed as the inhibitory constant, Ki. […] JT Baker or Fisher Scientific). […] Values of Ki were determined by allowing the protease to react with the substrate in the presence of the inhibitor. Reactions were allowed to go for periods of 20-180 minutes (depending on the protease) and the velocities (rate of absorbance or fluorescence change versus time) were measured.

Sequence of purified human Factor XIa (P03951 388-625): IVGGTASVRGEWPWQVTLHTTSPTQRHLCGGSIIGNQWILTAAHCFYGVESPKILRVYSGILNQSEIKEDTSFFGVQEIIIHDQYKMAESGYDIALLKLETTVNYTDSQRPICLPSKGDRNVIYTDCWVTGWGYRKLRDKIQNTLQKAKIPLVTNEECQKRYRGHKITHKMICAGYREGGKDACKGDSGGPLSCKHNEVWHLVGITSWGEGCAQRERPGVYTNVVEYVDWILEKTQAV
Sequence of purified human Factor XIa (P03951 19-387 partner): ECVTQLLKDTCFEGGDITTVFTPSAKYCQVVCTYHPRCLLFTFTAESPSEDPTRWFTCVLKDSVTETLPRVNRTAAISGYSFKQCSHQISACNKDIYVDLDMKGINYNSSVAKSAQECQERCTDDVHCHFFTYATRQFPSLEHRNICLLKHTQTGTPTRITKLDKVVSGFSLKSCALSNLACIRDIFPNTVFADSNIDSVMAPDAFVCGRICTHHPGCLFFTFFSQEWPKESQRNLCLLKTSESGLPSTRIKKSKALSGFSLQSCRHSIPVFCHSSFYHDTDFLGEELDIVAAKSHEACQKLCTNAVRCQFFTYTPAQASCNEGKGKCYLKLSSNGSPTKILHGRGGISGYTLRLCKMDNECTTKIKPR

Ki	SMILES
20.6 nM	CCOC(=O)c1ccc(NC(=O)C2c3cccc(N4CCCCC4=O)c3CCN2C(=O)/C=C/c2c(-n3cnnn3)ccc(Cl)c2F)cc1 (racemic) [compound 43]
< 5 nM	O=C(O)c1ccc(NC(=O)C2c3cccc(N4CCNCC4)c3CCN2C(=O)C=Cc2c(-n3cnnn3)ccc(Cl)c2F)cc1 (stereo not drawn) [Example 13]
1690 nM	CCOC(=O)c1ccc(NC(=O)[C@H]2c3cccc(N4CCNCC4=O)c3CCN2C(=O)/C=C/c2c(-n3cnnn3)ccc(Cl)c2F)cc1 [Example 189]
< 5 nM	O=C(O)c1ccc(NC(=O)C2c3cccc(N4CCC(C(=O)N5CCCC5)CC4)c3CCN2C(=O)/C=C/c2c(-n3cnnn3)ccc(Cl)c2F)cc1 (racemic) [Example 131]

Same assay, conditions: substrate S-2366, activity ranges, Table A

SMILES	Ki
COC(=O)[C@H]1CC[C@@H](NC(=O)C2c3cccc(N4CCC(N5CCCC5)CC4)c3CCN2C(=O)/C=C/c2c(-n3cnnn3)ccc(Cl)c2F)CC1 (mixture of isomers) [Example 233]	5 to 10 nM
O=C(O)c1ccc(NC(=O)C2c3cccc(N4CCNCC4)c3CCN2C(=O)/C=C/c2cc(Cl)c(F)cc2-n2cnnn2)cc1 (stereo not drawn) [Example 65, (E)-4-(2-(3-(5-chloro-4-fluoro-2-(1H-tetrazol-1-yl)phenyl)acryloyl)-5-(piperazin-1-yl)-1,2,3,4-tetrahydroisoquinoline-1-carboxamido)benzoic acid, bis TFA Salt]	5 to 10 nM
COC(=O)CNC(=O)c1ccc(NC(=O)C2c3cccc(N4CCNCC4)c3CCN2C(=O)/C=C/c2cc(Cl)c(F)cc2-n2cnnn2)cc1 (racemic) [Example 74]	100 to 500 nM
O=C(Nc1ccc(Cl)cc1)C1c2cccc(N3CCC(N4CCCC4)CC3)c2CCN1C(=O)C=Cc1c(-n2cnnn2)ccc(Cl)c1F (stereo not drawn) [Example 111]	500 to 5000 nM
O=C(Nc1ccc2cnn(C(=O)OCc3ccccc3)c2c1)C1c2cccc(N3CCNCC3)c2CCN1C(=O)/C=C/c1c(-n2cnnn2)ccc(Cl)c1F (stereo not drawn) [Example 9]	5 to 10 nM
CN(C)C1CCN(c2cccc3c2CCN(C(=O)/C=C/c2c(-n4cnnn4)ccc(Cl)c2F)C3C(=O)Nc2ccc(C(=O)OC(C)(C)C)cc2)CC1 (racemic) [Example 91]	5 to 10 nM
N#Cc1ccc(NC(=O)C2c3cccc(N4CCNCC4)c3CCN2C(=O)/C=C/c2c(-n3cnnn3)ccc(Cl)c2F)cc1 (stereo not drawn) [Example 6]	5 to 10 nM

Now from value to compound:

Ki	SMILES
5 to 10 nM	CC(=O)c1ccc(Cl)c(F)c1C=CC(=O)N1CCc2c(cccc2N2CCC(N3CCCC3)CC2)C1C(=O)Nc1ccc(C(=O)OCc2ccccc2)cc1 (stereo not drawn) [Example 171]
< 5 nM	CCOC(=O)c1ccc(NC(=O)C2c3cccc(N4CCC(N5CCCC5)CC4)c3CCN2C(=O)C=Cc2c(C(C)=O)ccc(Cl)c2F)cc1 (stereo not drawn) [Example 170]
< 5 nM	CC(=O)c1ccc(Cl)c(F)c1/C=C/C(=O)N1CCc2c(cccc2N2CCC(N3CCCC3)CC2)C1C(=O)Nc1ccc(C(=O)O)cc1 (racemic) [Example 154]
< 5 nM	Cn1ncc2ccc(NC(=O)C3c4cccc(N5CCC(N6CCCC6)CC5)c4CCN3C(=O)/C=C/c3c(-n4cnnn4)ccc(Cl)c3F)cc21 (racemic) [Example 120]
< 5 nM	O=C(O)c1ccc(NC(=O)[C@@H]2c3cccc(N4CCC5(CC4)OCCO5)c3CCN2C(=O)/C=C/c2c(-n3cnnn3)ccc(Cl)c2F)cc1 [Example 143]
< 5 nM	CCOC(=O)c1ccc(NC(=O)C2c3cccc(N4CCC(N5CCCC5)CC4)c3CCN2C(=O)/C=C/c2c(-n3cnnn3)ccc(Cl)c2F)cc1 (racemic) [Example 83]
< 5 nM	COC1CCN(c2cccc3c2CCN(C(=O)/C=C/c2c(-n4cnnn4)ccc(Cl)c2F)C3C(=O)Nc2ccc(C(=O)O)cc2)CC1 (racemic) [Example 150]
< 5 nM	O=C(O)c1ccc(NC(=O)C2c3cccc(N4CCC5(CCN(Cc6ccccc6)C5=O)CC4)c3CCN2C(=O)/C=C/c2c(-n3cnnn3)ccc(Cl)c2F)cc1 (racemic) [Example 121]
< 5 nM	CC(C)(C)OC(=O)c1ccc(NC(=O)C2c3cccc(N4CCC(N5CCCC5)CC4)c3CCN2C(=O)/C=C/c2c(-n3cnnn3)ccc(Cl)c2F)cc1 (racemic) [Example 84]
< 5 nM	O=C(Nc1ccc2cn[nH]c2c1)C1c2cccc(N3CCNCC3)c2CCN1C(=O)/C=C/c1c(-n2cnnn2)ccc(Cl)c1F (stereo not drawn) [Example 11]
